Laboratory results from PMC4391872, “Direct Binding of Ledipasvir to HCV NS5A: Mechanism of Resistance to an HCV Antiviral Agent” (PLoS ONE, 2015).
Like-named read-outs stand apart in the source and are kept apart here.

Experiments:
[1] = target: T1, NS5A-6HIS (full length NS5A, genotype 1b, Con1) (Hepatitis C virus (isolate Con1), UniProt Q9WMX2); assay: competition of 3H-LDV binding, Ni-NTA capture
T1 construct: mature NS5A cut from HCV genome polyprotein; full length residues 1-447 with N-terminal amphipathic helix, C-terminal 6His tag kept; Sf9 baculovirus, C12E8 solubilised, phosphorylated
T1 sequence (Q9WMX2 1973-2419): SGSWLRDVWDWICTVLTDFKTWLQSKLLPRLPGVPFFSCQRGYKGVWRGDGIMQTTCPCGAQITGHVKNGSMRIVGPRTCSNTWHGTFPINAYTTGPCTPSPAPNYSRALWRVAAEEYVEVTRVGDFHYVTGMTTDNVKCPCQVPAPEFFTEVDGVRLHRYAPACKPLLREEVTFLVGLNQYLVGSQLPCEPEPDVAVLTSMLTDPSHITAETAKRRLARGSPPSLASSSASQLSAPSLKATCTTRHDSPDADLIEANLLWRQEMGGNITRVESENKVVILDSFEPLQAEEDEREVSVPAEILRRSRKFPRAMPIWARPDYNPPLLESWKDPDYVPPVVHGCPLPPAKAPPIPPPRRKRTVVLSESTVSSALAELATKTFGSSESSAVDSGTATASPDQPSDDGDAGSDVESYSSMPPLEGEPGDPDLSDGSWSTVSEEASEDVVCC

[2] = target: NS5A-Y93H-6HIS (Y93H mutant of full length NS5A, genotype 1b, Con1, with C-terminal His tag) (Hepatitis C virus genotype 1b, Con1); assay: AUC; sedimentation velocity (42,000 rpm, 3.3 and 6.6 uM) and equilibrium, 20 C, protein in C12E8 micelles, 25 mM Tris pH 7.5, 150 mM NaCl, 0.5 mM TCEP, 0.02% C12E8, 21.1% D2O (density matched to the detergent); self-association
[3] = target: T1, NS5A-6HIS (full length NS5A, genotype 1b, Con1); assay: competition of 3H-LDV binding, Ni-NTA capture; remark: listed apart in the source
Method: competition of 3H-LDV binding, Ni-NTA capture on NS5A-6HIS (full length NS5A, genotype 1b, Con1) | Ki was calculated using the Cheng-Prusoff equation

[4] = target: T1, NS5A-6HIS (full length NS5A, genotype 1b, Con1); assay: radioligand saturation binding, Ni-NTA capture

Row | Molecule | Ki [3] [nM] | IC50 ([1]; read-out: IC50) [nM] | also measured
1 | O=C1N[C@H]2[C@H](CS[C@H]2CCCCC(=O)N2CCC[C@H]2C(=O)Nc2ccc(/C=C/c3ccc(NC(=O)[C@@H]4CCCN4C(=O)Cc4ccccc4)cc3)cc2)N1 [BMS-Biotin] | – | – | IC50 ([1]; read-out: no competition up to 100 μM): > 100000 nM
2 | NS5A-Y93H-6HIS (Y93H mutant of full length NS5A, genotype 1b, Con1, with C-terminal His tag) (natural protein) | – | – | percent dimers [2]: 3%; percent higher order oligomers [2]: 7%
3 | COC(=O)N[C@H](C(=O)N1CCC[C@H]1c1nc(-c2ccc(-c3ccc(-c4c[nH]c([C@@H]5CCCN5C(=O)[C@@H](NC(=O)OC)C(C)C)n4)cc3)cc2)c[nH]1)C(C)C [daclatasvir] | 499 ± 68.3 | 753 | –
4 | COC(=O)N[C@H](C(=O)N1CC2(CC2)C[C@H]1c1ncc(-c2ccc3c(c2)C(F)(F)c2cc(-c4ccc5nc([C@@H]6[C@H]7CC[C@H](C7)N6C(=O)[C@@H](NC(=O)OC)C(C)C)[nH]c5c4)ccc2-3)[nH]1)C(C)C [ledipasvir] | 98.7 ± 10.2 | 149 | Kd [4]: 58.9 ± 6.6 nM
